Tests used:
[1] = system: tubulin; experiment: inhibition of tubulin polymerization in vitro (turbidity at 350 nm); assay type: biochemical
Protocol: Anti-mitotic activity can be evaluated by testing the ability of an estradiol derivative to inhibit tubulin polymerization and microtubule assembly in vitro. Microtubule assembly is followed in a Gilford recording spectrophotometer (model 250 or 2400S) equipped with electronic temperature controllers. A reaction mixture (all concentrations refer to a final reaction volume of […]) contains 1.0 M monosodium glutamate (ph 6.6), 1. omg/ml (10 μM) tubulin, 1.0 mM MgCl2, 4% (v/v) dimethylsulfoxide and 20-75μM of a composition to be tested. The 0.24 ml reaction mixtures are incubated for 15 min. at 37° C. and then chilled on ice. After addition of 10p1 2.5mM GTP, the reaction mixture is transferred to a cuvette at 0° C., and a baseline established. At time zero, the temperature controller of the spectrophotometer is set at 37° C. Microtubule assembly is evaluated by increased turbity at 350 nm.
A. Each reaction mixture (all concentrations refer to the final reaction volume of 0.25 ml) contained 1.0 M monosodium glutamate (pH 6.6), 1.0 mg/ml (10 μM) tubulin, 1.0 mM MgCl2, 4% (v/v) dimethylsulfoxide, and either 0 (curve 1), 20μM (curve 2), 40 μM (curve 3), or 75 μM (curve 4) 2-methoxyestradiol. The 0.24 ml reaction mixtures were incubated for 15 min. at 37° C and chilled on ice. After addition of 10 μl of 2.5 mM GTP the reaction mixtures were transferred to cuvettes held at 0° C., and baselines were established. At time zero the temperature controller was set at 37° C. At the times indicated by the vertical dashed lines the temperature controller was set at the indicated temperatures.
B. Each reaction mixture contained 0.8 M monosodium glutamate (pH 6.6), 1.2 mg/ml (12 μM) tubulin, 4% (v/v) dimethylsulfoxide, and either 0 (curve 1), 1.0 FM (curve 2), 2.0 ,M (curve 3), 3.0 μM (curve 4), or 4.0 μM (curve 5) 2-methoxyestradiol. The 0.24 ml reaction mixtures were incubated for 15 min. at 26° C. and chilled on ice. After addition of 10μl of 10 mM GTP the reaction mixtures were transferred to cuvettes held at 0° C., and baselines were established. At time zero the temperature controller was set at 26° C. At the time indicated by vertical dashed line the temperature controller was set at 0° C.
The method is given in Example 1.
S.D., standard deviation.

[2] = system: MDA-MB-435 estrogen receptor-negative human breast carcinoma cells; experiment: In Vivo Tumor Growth Inhibition; design: species or system SCID mice; settings: 29 days at 75 mg/kg p.o.
Protocol: To determine the antitumor activity of 2-ME and derivatives, SCID mice were s.c. inoculated with 10^6 MDA-MB-435 estrogen receptor-negative human breast carcinoma cells. Treatment was initiated on day 12 when tumor volumes reached 75-100 mm3 in volume. Drugs were suspended in 0.5 g/100 ml of carboxymethylcellulose with sterile glass beads, vortexed for 5 minutes, and administered p.o. in a volume of 0.1 ml. Control mice received 0.1 ml of carboxymethylcellulose p.o. Serial caliper measurements of perpendicular diameters were used to calculate tumor volume using the following: (shortest diameter)^2×(longest diameter)×0.52. T/C was calculated as the volume of treated tumors over the volume of control tumors. A smaller number indicates a greater inhibition of tumor growth.

[3] = system: tubulin; experiment: inhibition of [3H]colchicine binding to tubulin; settings: 1.0 μM tubulin, 10 min at 37° C.
Protocol: Incubation was for 10 min. at 37° C.
Incubation was for 10 mi. at 37° C. Average values obtained in three independent experiments are presented in the table, except for 2-methoxyestrone, which was only examined twice. S.D., standard deviation.

[4] = system: new blood vessel cells (angiogenesis); experiment: chick embryo chorioallantoic membrane (CAM) assay; assay type: in vivo; settings: 100 mg disk, after 48 hours
Protocol: A suitable assay is the chick embryo chorioallantoic membrane (CAM) assay described by Crum et al. Science 230:1375 (1985). See also, U.S. Pat. No. 5,001,116, hereby incorporated by reference, which describes the CAM assay. Briefly, fertilized chick embryos are removed from their shell on day 3 or 4, and a methylcellulose disc containing the drug is implanted on the chorioallantoic membrane. The embryos are examined 48 hours later and, if a clear avascular zone appears around the methylcellulose disc, the diameter of that zone is measured.

[5] = biological target: T1, rat uterine cytosolic estrogen receptor (Rattus norvegicus, UniProt P06211); experiment: Relative Binding Affinity to estrogen receptor; settings: at 0°; 3H-Estradiol=100
T1 construct: from tissue; host or cells: rat uterine cytosol (per the result head)
T1 sequence (P06211 1-600): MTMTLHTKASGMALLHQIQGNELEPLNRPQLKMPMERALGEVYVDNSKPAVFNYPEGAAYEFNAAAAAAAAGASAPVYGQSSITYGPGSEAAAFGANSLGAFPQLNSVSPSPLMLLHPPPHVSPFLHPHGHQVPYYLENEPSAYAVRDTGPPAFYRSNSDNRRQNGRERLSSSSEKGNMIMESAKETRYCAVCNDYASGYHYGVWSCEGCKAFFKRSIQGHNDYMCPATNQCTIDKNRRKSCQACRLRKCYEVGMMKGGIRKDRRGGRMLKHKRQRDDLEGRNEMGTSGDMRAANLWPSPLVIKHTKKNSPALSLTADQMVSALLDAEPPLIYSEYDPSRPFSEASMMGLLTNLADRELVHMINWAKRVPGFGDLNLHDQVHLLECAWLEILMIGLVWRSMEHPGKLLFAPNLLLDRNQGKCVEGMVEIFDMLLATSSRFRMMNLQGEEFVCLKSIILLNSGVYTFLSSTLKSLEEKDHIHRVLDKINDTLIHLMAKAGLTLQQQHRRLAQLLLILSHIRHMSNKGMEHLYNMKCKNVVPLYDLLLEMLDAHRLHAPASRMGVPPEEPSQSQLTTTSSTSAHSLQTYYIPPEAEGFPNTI
Excerpt: (§1) The tubulin activities, breast cancer cell line activities, and the cell panels most sensitive to selected analogs are shown in Tables 3 and 4.

[6] = system: Melanoma cell lines; experiment: Human Tumor Cell Panel Assay in vitro, melanoma panel; assay type: cell-based; design: key: Most sensitive cell panes are marked with ✓
Excerpt: as §1

[7] = system: 8 human breast cancer cell lines; experiment: human tumor cell panel assay in vitro, breast panel; assay type: cell-based; design: key to Most Sensitive Cell Lines in Human Tumor Cell Panel Assay: Breast: Most sensitive cell panes are marked with ✓
Excerpt: as §1

[8] = system: tubulin; experiment: tubulin activities of 2-ME analogs (Table 3); assay type: biochemical
[9] = system: Ovarian cell lines (especially OVCAR-3); experiment: Human Tumor Cell Panel Assay in vitro, ovarian panel; assay type: cell-based; design: key: Most sensitive cell panes are marked with ✓
Excerpt: as §1

`COc1cc2c(cc1O)CCC1C2CCC2(C)C(O)CCC12` (stereo not drawn) [NSC 659853, 2-Methoxyestradiol] was tested, and the “inhibition of tubulin polymerization (FIG. 1), in words” value ([1]; 20-75 μM (A) or 1.0-4.0 μM (B) 2-methoxyestradiol) was “inhibition of tubulin polymerization”, the IC50 ([1]; read-out: IC50 (concentration required to inhibit tubulin polymerization by 50%), mean ± S.D., method of Example 1) was 1900 ± 200 nM and the “T/C (volume of treated tumors over volume of control tumors)” value [2] was 0.40. For the same compound, the “inhibition of colchicine binding to tubulin (FIG. 2), in words” value ([3]; 5 μM [3H]colchicine) was “inhibits colchicine binding to tubulin”, the “Percentage Inhibition of colchicine binding to tubulin” value ([3]; 100 μM inhibitor, 2 μM [3H]colchicine, ± S.D.) was 82 ± 2% and the “inhibition of cell mitosis and growth of new blood vessels in CAM assay” value [4] was “found to inhibit cell mitosis and the growth of new blood vessels”. For the same compound, the “RBA, Relative Binding Affinity to rat uterine cytosolic estrogen receptor” value [5] was 0.245, the “Most Sensitive Cell Lines in Human Tumor Cell Panel Assay: Melanoma” value [6] was “✓” and the “Most Sensitive Cell Lines in Human Tumor Cell Panel Assay: Breast” value ([7]; 8 cell lines, only MCF-7 and T-47D express estrogen and progesterone receptors) was “✓”. For the same compound, the IC50 ([7]; Homo sapiens, cell panel assay in vitro, two values per cell separated by /, read-out: Tumor Panel: Average log IC50(Molar) against 8 human breast cancer cell lines (converted)) was 234 nM, the IC50 [8] was 3.6 ± 0.4 µM and the “Most Sensitive Cell Lines in Human Tumor Cell Panel Assay: Ovarian” value [9] was “✓”.

Reference: patent US20020002294A1, “Estrogenic compounds as antiangiogenic agents” (priority 1997, published 2002)
